Test results: ChEMBL document CHEMBL3600292, “Anti-HIV screening for cell-penetrating peptides using chloroquine and identification of anti-HIV peptides derived from matrix proteins” (Bioorg Med Chem, 2015)
Starred links: 1 amine or outer side, 2 acyl side, 3 side chain; linkers in the order of their positions; H or OH if unused. Positions of bridges follow the written chain, without caps; N, C: chain ends. Non-standard residues stand in square brackets, D forms with d. Residues, ends and D or L forms follow the SMILES beside them. Chains are numbered I, II in the order given. Orn = NCCC[C@H](N)C(=O)O; X1 = O=C(C[*:1])[*:2]

Tests used:
[1] = Cytotoxicity against human PM1 cells expressing CCR5 by MTT assay in presence of 5 uM of chloroquine; type: cell-based
[2] = system: Human immunodeficiency virus 1; assay: Antiviral activity against T-cell line-tropic HIV1 NL4-3 infected in human MT4 cells assessed as inhibition of virus-induced cytopathogenicity after 5 days by MTT assay in presence of 5 uM of chloroquine; type: functional, organism-based; details: Human immunodeficiency virus 1, NL4-3, MT4, 120 h
[3] = Cytotoxicity against human MT4 cells by MTT assay in presence of 5 uM of chloroquine; type: cell-based
[4] = system: Human immunodeficiency virus 1; assay: Antiviral activity against T-cell line-tropic HIV1 NL4-3 infected in human MT4 cells assessed as inhibition of virus-induced cytopathogenicity after 5 days by MTT assay; type: functional, organism-based; details: Human immunodeficiency virus 1, NL4-3, MT4, 120 h
[5] = system: Human immunodeficiency virus 1; assay: Antiviral activity against macrophage-tropic HIV1 NL(AD8) infected in human PM1 expressing CCR5 cells assessed as inhibition of virus-induced cytopathogenicity after 5 days by MTT assay in presence of 5 uM of chloroquine; type: functional, organism-based; details: Human immunodeficiency virus 1, NL(AD8), PM1/CCR5, 120 h
[6] = Cytotoxicity against human MT4 cells by MTT assay; type: cell-based

Compound	CC50 [1]	EC50 [2]	CC50 [3]	EC50 [4]	EC50 [5]	CC50 [6]
CC[C@H](C)[C@H](NC(=O)[C@@H](NC(=O)[C@H](CC(N)=O)NC(=O)[C@H](Cc1ccc(O)cc1)NC(=O)[C@H](CC(C)C)NC(=O)[C@H](CO)NC(=O)[C@H](CCCNC(=N)N)NC(=O)[C@H](CC(C)C)NC(=O)[C@H](CCC(=O)O)NC(C)=O)[C@@H](C)O)C(=O)N[C@@H](C)C(=O)N[C@H](C(=O)N[C@@H](CC(C)C)C(=O)N[C@@H](Cc1ccc(O)cc1)C(=O)N[C@@H](CO)C(=O)N[C@H](C(=O)NCC(=O)N[C@@H](CSCC(=O)N[C@@H](CCCNC(=N)N)C(=O)N[C@@H](CCCN)C(=O)N[C@@H](CCCNC(=N)N)C(=O)N[C@@H](CCCN)C(=O)N[C@@H](CCCNC(=N)N)C(=O)N[C@@H](CCCN)C(=O)N[C@@H](CCCNC(=N)N)C(=O)N[C@@H](CCCN)C(N)=O)C(N)=O)C(C)C)C(C)C	8.4 µM	4.5 µM	8.1 µM	> 7.7 µM	2.3 µM	7.7 µM
CC[C@H](C)[C@H](NC(=O)[C@H](CCCCN)NC(=O)[C@@H](NC(=O)[C@H](CCC(N)=O)NC(=O)[C@H](CCCNC(=N)N)NC(=O)[C@H](C)NC(=O)[C@H](Cc1c[nH]cn1)NC(C)=O)[C@@H](C)O)C(=O)N[C@@H](Cc1ccc(O)cc1)C(=O)N[C@H](C(=O)N[C@H](C(=O)N[C@@H](CC(=O)O)C(=O)N[C@H](C(=O)N[C@@H](CC(C)C)C(=O)N[C@@H](CO)C(=O)N[C@H](C(=O)NCC(=O)N[C@@H](CSCC(=O)N[C@@H](CCCNC(=N)N)C(=O)N[C@@H](CCCN)C(=O)N[C@@H](CCCNC(=N)N)C(=O)N[C@@H](CCCN)C(=O)N[C@@H](CCCNC(=N)N)C(=O)N[C@@H](CCCN)C(=O)N[C@@H](CCCNC(=N)N)C(=O)N[C@@H](CCCN)C(N)=O)C(N)=O)C(C)C)C(C)C)C(C)C)[C@@H](C)CC (I: Ac-HARQTKIYIVDVLSVGC-NH2 / II: R[Orn]R[Orn]R[Orn]R[Orn]-NH2; linker I:17-II:N via X1)	8.7 µM	> 8.2 µM	8.2 µM	> 8.2 µM	> 8.7 µM	8.2 µM
CC[C@H](C)[C@H](NC(=O)[C@@H](NC(=O)[C@H](CC(N)=O)NC(=O)[C@H](Cc1ccc(O)cc1)NC(=O)[C@H](CC(C)C)NC(=O)[C@H](CO)NC(=O)[C@H](CCCNC(=N)N)NC(=O)[C@H](CC(C)C)NC(C)=O)[C@@H](C)O)C(=O)N[C@@H](C)C(=O)N[C@H](C(=O)N[C@@H](CC(C)C)C(=O)N[C@@H](Cc1ccc(O)cc1)C(=O)N[C@@H](CO)C(=O)N[C@H](C(=O)N[C@@H](Cc1c[nH]cn1)C(=O)NCC(=O)N[C@@H](CSCC(=O)N[C@@H](CCCNC(=N)N)C(=O)N[C@@H](CCCN)C(=O)N[C@@H](CCCNC(=N)N)C(=O)N[C@@H](CCCN)C(=O)N[C@@H](CCCNC(=N)N)C(=O)N[C@@H](CCCN)C(=O)N[C@@H](CCCNC(=N)N)C(=O)N[C@@H](CCCN)C(N)=O)C(N)=O)C(C)C)C(C)C	5.2 µM	4.6 µM	10 µM	> 8.5 µM	> 5.2 µM	8.5 µM
CC[C@H](C)[C@H](NC(=O)[C@@H](NC(=O)[C@H](CC(N)=O)NC(=O)[C@H](Cc1ccc(O)cc1)NC(=O)[C@H](CC(C)C)NC(=O)[C@H](CO)NC(C)=O)[C@@H](C)O)C(=O)N[C@@H](C)C(=O)N[C@H](C(=O)N[C@@H](CC(C)C)C(=O)N[C@@H](Cc1ccc(O)cc1)C(=O)N[C@@H](CO)C(=O)N[C@H](C(=O)N[C@@H](Cc1c[nH]cn1)C(=O)N[C@@H](CCC(N)=O)C(=O)N[C@@H](CCCNC(=N)N)C(=O)NCC(=O)N[C@@H](CSCC(=O)N[C@@H](CCCNC(=N)N)C(=O)N[C@@H](CCCN)C(=O)N[C@@H](CCCNC(=N)N)C(=O)N[C@@H](CCCN)C(=O)N[C@@H](CCCNC(=N)N)C(=O)N[C@@H](CCCN)C(=O)N[C@@H](CCCNC(=N)N)C(=O)N[C@@H](CCCN)C(N)=O)C(N)=O)C(C)C)C(C)C (I: Ac-SLYNTIAVLYSVHQRGC-NH2 / II: R[Orn]R[Orn]R[Orn]R[Orn]-NH2; linker I:17-II:N via X1)	4.6 µM	1 µM	4.4 µM	> 4.8 µM	> 4.6 µM	4.8 µM
CC[C@H](C)[C@H](NC(=O)[C@@H](NC(=O)[C@H](CC(N)=O)NC(=O)[C@H](Cc1ccc(O)cc1)NC(=O)[C@H](CC(C)C)NC(=O)[C@H](CO)NC(=O)[C@H](CCCNC(=N)N)NC(=O)[C@H](CC(C)C)NC(=O)[C@H](CCC(=O)O)NC(=O)[C@H](CCC(=O)O)NC(=O)[C@H](CO)NC(C)=O)[C@@H](C)O)C(=O)N[C@@H](C)C(=O)N[C@H](C(=O)N[C@@H](CC(C)C)C(=O)N[C@@H](Cc1ccc(O)cc1)C(=O)NCC(=O)N[C@@H](CSCC(=O)N[C@@H](CCCNC(=N)N)C(=O)N[C@@H](CCCNC(=N)N)C(=O)N[C@@H](CCCNC(=N)N)C(=O)N[C@@H](CCCNC(=N)N)C(=O)N[C@@H](CCCNC(=N)N)C(=O)N[C@@H](CCCNC(=N)N)C(=O)N[C@@H](CCCNC(=N)N)C(=O)N[C@@H](CCCNC(=N)N)C(N)=O)C(N)=O)C(C)C	13 µM	> 8.7 µM	8.7 µM	> 10 µM	> 13 µM	10 µM
CC[C@H](C)[C@H](NC(=O)[C@@H](NC(=O)[C@H](CC(N)=O)NC(=O)[C@H](Cc1ccc(O)cc1)NC(=O)[C@H](CC(C)C)NC(=O)[C@H](CO)NC(=O)[C@H](CCCNC(=N)N)NC(C)=O)[C@@H](C)O)C(=O)N[C@@H](C)C(=O)N[C@H](C(=O)N[C@@H](CC(C)C)C(=O)N[C@@H](Cc1ccc(O)cc1)C(=O)N[C@@H](CO)C(=O)N[C@H](C(=O)N[C@@H](Cc1cnc[nH]1)C(=O)N[C@@H](CCC(N)=O)C(=O)NCC(=O)N[C@@H](CSCC(=O)N[C@@H](CCCNC(=N)N)C(=O)N[C@@H](CCCN)C(=O)N[C@@H](CCCNC(=N)N)C(=O)N[C@@H](CCCN)C(=O)N[C@@H](CCCNC(=N)N)C(=O)N[C@@H](CCCN)C(=O)N[C@@H](CCCNC(=N)N)C(=O)N[C@@H](CCCN)C(N)=O)C(N)=O)C(C)C)C(C)C (I: Ac-RSLYNTIAVLYSVHQGC-NH2 / II: R[Orn]R[Orn]R[Orn]R[Orn]-NH2; linker I:17-II:N via X1)	8.2 µM	0.85 µM	9.2 µM	5.2 µM	1.3 µM	9.2 µM
CC[C@H](C)[C@H](NC(=O)[C@@H](NC(=O)[C@H](CC(N)=O)NC(=O)[C@H](Cc1ccc(O)cc1)NC(=O)[C@H](CC(C)C)NC(=O)[C@H](CO)NC(=O)[C@H](CCCNC(=N)N)NC(=O)[C@H](CC(C)C)NC(=O)[C@H](CCC(=O)O)NC(=O)[C@H](CCC(=O)O)NC(C)=O)[C@@H](C)O)C(=O)N[C@@H](C)C(=O)N[C@H](C(=O)N[C@@H](CC(C)C)C(=O)N[C@@H](Cc1ccc(O)cc1)C(=O)N[C@@H](CO)C(=O)NCC(=O)N[C@@H](CSCC(=O)N[C@@H](CCCNC(=N)N)C(=O)N[C@@H](CCCN)C(=O)N[C@@H](CCCNC(=N)N)C(=O)N[C@@H](CCCN)C(=O)N[C@@H](CCCNC(=N)N)C(=O)N[C@@H](CCCN)C(=O)N[C@@H](CCCNC(=N)N)C(=O)N[C@@H](CCCN)C(N)=O)C(N)=O)C(C)C	9.3 µM	> 10 µM	10 µM	> 9.3 µM	> 9.3 µM	9.3 µM
